Laboratory results from patent US20230104936A1, “TRPML MODULATORS” (Casma Therapeutics, Inc., priority 2019, published 2023).

System: TFEB
Assay: TFEB nuclear translocation assay, HeLa wt cells
Assay type: cell-based
Details: 2 hrs compound treatment, Table 1 does not say HeLa wt or TRPML1 KO
Outline: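 Using 20× epifluorescence of fixed, anti-TFEB-stained HeLa wt cells treated 2 hrs with compound, nuclear versus perinuclear ring intensity was quantified over four fields per well, yielding AC50 values.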

| Structure (SMILES) | AC50 (Homo sapiens, HeLa, 2 h) [µM] | AC50 [µM] |
| --- | --- | --- |
| COCC(F)(F)C1CCN(c2c(F)cccc2NS(=O)(=O)c2ccc(S(=O)(=O)N(C)C)cc2)CC1 [Compound A-861, N4-{2-[4-(1,1-difluoro-2-methoxyethyl)piperidin-1-yl]-3-fluorophenyl}-N1,N1-dimethylbenzene-1,4-disulfonamide] | ≤ 2 |  |
| C[C@H]1CN(CC2CCN(c3c(F)cccc3NS(=O)(=O)c3ccc(S(=O)(=O)N(C)C)cc3)CC2)[C@@H](C)CO1 [Compound A-862, N4-[2-(4-{[(2S,5S)-2,5-dimethylmorpholin-4-yl]methyl}piperidin-1-yl)-3-fluorophenyl]-N1,N1-dimethylbenzene-1,4-disulfonamide] | ≤ 2 |  |
| C[C@@H]1CN(CC2CCN(c3c(NS(=O)(=O)c4ccc(S(=O)(=O)N(C)C)cc4)cccc3C3CC3)CC2)C[C@H](C)O1 [Compound A-863, N4-[3-cyclopropyl-2-(4-{[(2R,6S)-2,6-dimethylmorpholin-4-yl]methyl}piperidin-1-yl)phenyl]-N1,N1-dimethylbenzene-1,4-disulfonamide] | ≤ 2 |  |
| C[C@@H]1CN(CC2CCN(c3c(Br)cccc3NS(=O)(=O)c3ccc(S(=O)(=O)N(C)C)cc3)CC2)C[C@H](C)O1 [Compound A-864, N4-[3-bromo-2-(4-{[(2R,6S)-2,6-dimethylmorpholin-4-yl]methyl}piperidin-1-yl)phenyl]-N1,N1-dimethylbenzene-1,4-disulfonamide] | ≤ 2 |  |
| C[C@@H]1CN(CC2CCN(c3c(F)cccc3NS(=O)(=O)c3ccc(S(=O)(=O)N(C)C)cc3)CC2)[C@@H](C)CO1 [Compound A-865, N4-[2-(4-{[(2R,5S)-2,5-dimethylmorpholin-4-yl]methyl}piperidin-1-yl)-3-fluorophenyl]-N1,N1-dimethylbenzene-1,4-disulfonamide] | ≤ 2 |  |
| CC1COCC(C)N1CC1CCN(c2c(F)cccc2NS(=O)(=O)c2ccc(S(=O)(=O)C(F)F)cc2)CC1 (centres unmarked) [Compound A-866, 4-difluoromethanesulfonyl-N-(2-{4-[(3,5-dimethylmorpholin-4-yl)methyl]piperidin-1-yl}-3-fluorophenyl)benzene-1-sulfonamide] | ≤ 2 |  |
| CN(C)S(=N)(=O)c1ccc(S(=O)(=O)Nc2cccc(F)c2N2CCC(CN3CCOCC3(C)C)CC2)cc1 (centres unmarked) [Compound A-867, 4-[(2-{4-[(3,3-dimethylmorpholin-4-yl)methyl]piperidin-1-yl}-3-fluorophenyl)sulfamoyl]-N,N-dimethylbenzene-1-sulfonoimidamide] | ≤ 2 |  |
| C[C@@H]1CN(C2CCN(c3c(F)cccc3NS(=O)(=O)c3ccc(S(=O)(=O)N(C)C)cc3)CC2)C[C@H](C)O1 [Compound A-868, N4-(2-{4-[(2R,6S)-2,6-dimethylmorpholin-4-yl]piperidin-1-yl}-3-fluorophenyl)-N1,N1-dimethylbenzene-1,4-disulfonamide] | ≤ 2 |  |
| CC(c1cccc(F)c1N1CCC(CN2C3COCC2C3)CC1)S(=O)(=O)c1ccc(S(=O)(=O)N(C)C)cc1 [Compound A-869, rel-4-[(1R)-1-{3-fluoro-2-[4-({3-oxa-6-azabicyclo[3.1.1]heptan-6-yl}methyl)piperidin-1-yl]phenyl}ethanesulfonyl]-N,N-dimethylbenzene-1-sulfonamide] | 2.01 to 8 |  |
| CC(c1cccc(F)c1N1CCC(CN2C3COCC2C3)CC1)S(=O)(=O)c1ccc(S(=O)(=O)N(C)C)cc1 (centres unmarked) [Compound A-870, 4-((1-(2-(4-((3-oxa-6-azabicyclo[3.1.1]heptan-6-yl)methyl)piperidin-1-yl)-3-fluorophenyl)ethyl)sulfonyl)-N,N-dimethylbenzenesulfonamideformate] |  | ≥ 10 |
| CC(C1CCN(c2c(F)cccc2NS(=O)(=O)c2ccc(S(=N)(=O)N(C)C)cc2)CC1)N1C[C@@H](C)O[C@@H](C)C1 (stereo partly drawn) [Compound A-872A, N-(2-(4-(1-((2S,6R)-2,6-dimethylmorpholino)ethyl)piperidin-1-yl)-3-fluorophenyl)-4-(N,N-dimethylsulfamidimidoyl)benzenesulfonamide] | ≤ 2 |  |
| CN(C)S(=O)(=O)c1ccc(S(=O)(=O)Nc2cccc(F)c2N2CCC(N3CCC4(CCOC4)C3)CC2)cc1 (centres unmarked) [Compound A-874, N4-[3-fluoro-2-(4-{2-oxa-7-azaspiro[4.4]nonan-7-yl}piperidin-1-yl)phenyl]-N1,N1-dimethylbenzene-1,4-disulfonamide] | 2.01 to 8 |  |
| CC1(C)Cc2cc(S(=O)(=O)Nc3cccc(F)c3N3CCC(CN4C5COCC4C5)CC3)ccc2O1 [Compound A-875, N-{3-fluoro-2-[4-({3-oxa-6-azabicyclo[3.1.1]heptan-6-yl}methyl)piperidin-1-yl]phenyl}-2,2-dimethyl-2,3-dihydro-1-benzofuran-5-sulfonamide] | ≥ 10 |  |
| O=S(=O)(Nc1cccc(F)c1N1CCC(CN2C3COCC2C3)CC1)c1ccc2c(c1)CCC2 [Compound A-876, N-{3-fluoro-2-[4-({3-oxa-6-azabicyclo[3.1.1]heptan-6-yl}methyl)piperidin-1-yl]phenyl}-2,3-dihydro-1H-indene-5-sulfonamide] | ≥ 10 |  |
| CN(C)S(=N)(=O)c1ccc(S(=O)(=O)Nc2ccccc2N2CCC(COC(F)(F)CF)CC2)cc1 (centres unmarked) [Compound A-877, N,N-dimethyl-4-[(2-{4-[(1,1,2-trifluoroethoxy)methyl]piperidin-1-yl}phenyl)sulfamoyl]benzene-1-sulfonoimidamide] | ≤ 2 |  |
| C[C@@H]1CN(CC2CCN(c3c(C#N)cccc3NS(=O)(=O)c3ccc(S(=O)(=O)N(C)C)cc3)CC2)C[C@H](C)O1 [Compound A-878, N4-[3-cyano-2-(4-{[(2R,6S)-2,6-dimethylmorpholin-4-yl]methyl}piperidin-1-yl)phenyl]-N1,N1-dimethylbenzene-1,4-disulfonamide] | ≤ 2 |  |
| CC(c1cccnc1N1CCC(CN2C[C@@H](C)O[C@@H](C)C2)CC1)S(=O)(=O)c1ccc(S(=O)(=O)N(C)C)cc1 (stereo partly drawn) [Compound A-879, 4-{1-[2-(4-{[(2R,6S)-2,6-dimethylmorpholin-4-yl]methyl}piperidin-1-yl)pyridin-3-yl]ethanesulfonyl}-N,N-dimethylbenzene-1-sulfonamide] | ≤ 2 |  |
| CC1(C)Cc2cc(S(=O)(=O)Nc3cccc(F)c3N3CCC(CN4C5CCC4COC5)CC3)ccc2O1 [Compound A-880, N-{3-fluoro-2-[4-({3-oxa-8-azabicyclo[3.2.1]octan-8-yl}methyl)piperidin-1-yl]phenyl}-2,2-dimethyl-2,3-dihydro-1-benzofuran-5-sulfonamide] | ≤ 2 |  |
| Cc1ccc(S(=O)(=O)Nc2cccc(F)c2N2CCC(CN3C4CCC3COC4)CC2)cc1 [Compound A-881, N-{3-fluoro-2-[4-({3-oxa-8-azabicyclo[3.2.1]octan-8-yl}methyl)piperidin-1-yl]phenyl}-4-methylbenzene-1-sulfonamide] | ≤ 2 |  |
| O=S(=O)(Nc1cccc(F)c1N1CCC(CN2C3CCC2COC3)CC1)c1ccc2c(c1)CCC2 [Compound A-882, N-{3-fluoro-2-[4-({3-oxa-8-azabicyclo[3.2.1]octan-8-yl}methyl)piperidin-1-yl]phenyl}-2,3-dihydro-1H-indene-5-sulfonamide] | ≤ 2 |  |
| CN(C)S(=O)(=O)c1ccc(S(=O)(=O)Nc2cccc(F)c2N2CCC(CN3CC4C(C3)C4(F)F)CC2)cc1 (centres unmarked) [Compound A-883, N4-{2-[4-({6,6-difluoro-3-azabicyclo[3.1.0]hexan-3-yl}methyl)piperidin-1-yl]-3-fluorophenyl}-N1,N1-dimethylbenzene-1,4-disulfonamide] | ≤ 2 |  |
| CC(c1cccc(F)c1N1CCC(CN2C3CCC2COC3)CC1)S(=O)(=O)c1ccc2c(c1)CC(C)(C)O2 (centres unmarked) [Compound A-886, 8-{[1-(2-{1-[(2,2-dimethyl-2,3-dihydro-1-benzofuran-5-yl)sulfonyl]ethyl}-6-fluorophenyl)piperidin-4-yl]methyl}-3-oxa-8-azabicyclo[3.2.1]octane] | ≤ 2 |  |
| Cc1cc(Cl)c(N2CCOCC2)c(NS(=O)(=O)c2ccc3c(c2)CCC3)c1 [Compound A-887, N-[3-chloro-5-methyl-2-(morpholin-4-yl)phenyl]-2,3-dihydro-1H-indene-5-sulfonamide] | ≤ 2 |  |
| Cc1cc(Cl)c(N2CCOCC2)c(NS(=O)(=O)c2ccc(S(=O)(=O)N(C)C)cc2)c1 [Compound A-888, N4-[3-chloro-5-methyl-2-(morpholin-4-yl)phenyl]-N1,N1-dimethylbenzene-1,4-disulfonamide] | 2.01 to 8 |  |
| Cc1ccc(S(=O)(=O)Nc2cccc(F)c2N2CCC(CN3C4COCC3C4)CC2)cc1 [Compound A-889, N-{3-fluoro-2-[4-({3-oxa-6-azabicyclo[3.1.1]heptan-6-yl}methyl)piperidin-1-yl]phenyl}-4-methylbenzene-1-sulfonamide] | 2.01 to 8 |  |
| O=S(=O)(Nc1cccc(F)c1N1CCC(CN2C3COCC2C3)CC1)c1ccc(C(F)(F)C2CC2)cc1 [Compound A-898, 4-(cyclopropyldifluoromethyl)-N-{3-fluoro-2-[4-({3-oxa-6-azabicyclo[3.1.1]heptan-6-yl}methyl)piperidin-1-yl]phenyl}benzene-1-sulfonamide] | ≥ 10 |  |
| CN(C)S(=O)(=O)c1ccc(S(=O)(=O)Nc2cccc(F)c2N2CCC(C)(N)CC2)cc1 [Compound A-899, N4-[2-(4-amino-4-methylpiperidin-1-yl)-3-fluorophenyl]-N1,N1-dimethylbenzene-1,4-disulfonamide] | ≥ 10 |  |
| C[C@@H]1COC[C@H](C)N1CC1CN(c2c(F)cccc2NS(=O)(=O)c2ccc(S(=O)(=O)N(C)C)cc2)C1 [Compound A-900, N4-[2-(3-{[(3R,5S)-3,5-dimethylmorpholin-4-yl]methyl}azetidin-1-yl)-3-fluorophenyl]-N1,N1-dimethylbenzene-1,4-disulfonamide] | ≥ 10 |  |
| C#Cc1cccc(NS(=O)(=O)c2ccc(S(=O)(=O)N(C)C)cc2)c1N1CCCCC1 [Compound A-901, N4-[3-ethynyl-2-(piperidin-1-yl)phenyl]-N1,N1-dimethylbenzene-1,4-disulfonamide] | ≤ 2 |  |
